PubChem BioAssay (NCI)
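The compound was tested at five concentrations on cells cultured in 96-well plates, with a 48-hour exposure period. GI50 marks 50% less growth. TGI marks complete inhibition of growth.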

What was measured:
Assay in all cases: growth of human tumour cells (NCI), 48 h
M14 melanoma = tested on: M14 melanoma
U251 CNS = tested on: U251 CNS
SW-620 colon = tested on: SW-620 colon
SR leukemia = tested on: SR leukemia
SK-MEL-5 melanoma = tested on: SK-MEL-5 melanoma
TK-10 renal = tested on: TK-10 renal
OVCAR-8 ovarian = tested on: OVCAR-8 ovarian
KM12 colon = tested on: KM12 colon
HOP-92 NSCLC = tested on: HOP-92 NSCLC
KM20L2 colon = tested on: KM20L2 colon
EKVX NSCLC = tested on: EKVX NSCLC
UO-31 renal = tested on: UO-31 renal
A549 NSCLC = tested on: A549 NSCLC
DLD-1 colon = tested on: DLD-1 colon
SN12C renal = tested on: SN12C renal
A498 renal = tested on: A498 renal
HOP-18 NSCLC = tested on: HOP-18 NSCLC
SF-539 CNS = tested on: SF-539 CNS
SNB-75 CNS = tested on: SNB-75 CNS
RPMI-8226 leukemia = tested on: RPMI-8226 leukemia
OVCAR-3 ovarian = tested on: OVCAR-3 ovarian
HT29 colon = tested on: HT29 colon
DMS 273 small cell lung = tested on: DMS 273 small cell lung
K-562 leukemia = tested on: K-562 leukemia
SNB-78 CNS = tested on: SNB-78 CNS
M19-MEL melanoma = tested on: M19-MEL melanoma
LXFL 529 NSCLC = tested on: LXFL 529 NSCLC
NCI-H460 lung = tested on: NCI-H460 lung
MALME-3M melanoma = tested on: MALME-3M melanoma
OVCAR-5 ovarian = tested on: OVCAR-5 ovarian
HCC-2998 colon = tested on: HCC-2998 colon
NCI-H226 lung = tested on: NCI-H226 lung
UACC-62 melanoma = tested on: UACC-62 melanoma
NCI-H23 lung = tested on: NCI-H23 lung
UACC-257 melanoma = tested on: UACC-257 melanoma
SF-268 CNS = tested on: SF-268 CNS
CAKI-1 renal = tested on: CAKI-1 renal
HL-60(TB) leukemia = tested on: HL-60(TB) leukemia
SK-MEL-28 melanoma = tested on: SK-MEL-28 melanoma
OVCAR-4 ovarian = tested on: OVCAR-4 ovarian
HCT-116 colon = tested on: HCT-116 colon
SNB-19 CNS = tested on: SNB-19 CNS
HOP-62 NSCLC = tested on: HOP-62 NSCLC
SK-MEL-2 melanoma = tested on: SK-MEL-2 melanoma
LOX IMVI melanoma = tested on: LOX IMVI melanoma
HCT-15 colon = tested on: HCT-15 colon
ACHN renal = tested on: ACHN renal
786-0 renal = tested on: 786-0 renal
XF 498 CNS = tested on: XF 498 CNS
RXF 393 renal = tested on: RXF 393 renal
SK-OV-3 ovarian = tested on: SK-OV-3 ovarian
NCI-H522 lung = tested on: NCI-H522 lung
SF-295 CNS = tested on: SF-295 CNS
CCRF-CEM leukemia = tested on: CCRF-CEM leukemia
MOLT-4 leukemia = tested on: MOLT-4 leukemia
IGROV1 ovarian = tested on: IGROV1 ovarian
RXF-631 renal = tested on: RXF-631 renal
COLO 205 colon = tested on: COLO 205 colon

For CC(=O)OC1C(=O)C(O)C(C)OC1O[C@@H]1C[C@@]2(C)[C@@H]3CC=C4[C@@H](C[C@H](O)C(=O)C4(C)C)[C@]3(C)C(=O)C[C@]2(C)[C@H]1[C@@](C)(O)C(=O)/C=C/C(C)(C)O (stereo partly drawn), the TGI (M14 melanoma) was > 10 µM, the TGI (U251 CNS) was 5.41 µM and the TGI (SW-620 colon) was 9.85 µM. The TGI (SR leukemia) was > 10 µM, the TGI (SK-MEL-5 melanoma) was 8.4 µM and the TGI (TK-10 renal) was 3.44 µM. For the same compound, the TGI (OVCAR-8 ovarian) was > 10 µM, the TGI (KM12 colon) was > 10 µM and the TGI (HOP-92 NSCLC) was 2.52 µM. For the same compound, the TGI (KM20L2 colon) was 8.3 µM, the TGI (EKVX NSCLC) was > 7.55 µM and the TGI (UO-31 renal) was 4.95 µM. The TGI (A549 NSCLC) was > 10 µM, the TGI (DLD-1 colon) was > 10 µM and the TGI (SN12C renal) was > 10 µM. For the same compound, the TGI (A498 renal) was 1.04 µM, the TGI (HOP-18 NSCLC) was 4.9 µM and the TGI (SF-539 CNS) was 1.97 µM. For the same compound, the TGI (SNB-75 CNS) was 1.47 µM, the TGI (RPMI-8226 leukemia) was 8.04 µM and the TGI (OVCAR-3 ovarian) was 7.05 µM. For the same compound, the TGI (HT29 colon) was > 10 µM, the GI50 (DMS 273 small cell lung) was 0.0452 µM and the TGI (K-562 leukemia) was > 10 µM. The GI50 (SNB-78 CNS) was 0.0626 µM, the TGI (M19-MEL melanoma) was > 10 µM and the TGI (LXFL 529 NSCLC) was > 10 µM. For the same compound, the TGI (NCI-H460 lung) was > 10 µM, the TGI (MALME-3M melanoma) was 9.83 µM and the TGI (OVCAR-5 ovarian) was > 10 µM. The TGI (HCC-2998 colon) was 8.32 µM, the TGI (NCI-H226 lung) was 2 µM and the TGI (UACC-62 melanoma) was > 7.98 µM. The TGI (NCI-H23 lung) was > 10 µM, the TGI (UACC-257 melanoma) was 7.05 µM and the TGI (SF-268 CNS) was 4.01 µM. It also gave a TGI (CAKI-1 renal) of 2.98 µM, a TGI (HL-60(TB) leukemia) of 7.1 µM and a TGI (SK-MEL-28 melanoma) of 0.803 µM. The TGI (OVCAR-4 ovarian) was 5.51 µM, the TGI (HCT-116 colon) was > 10 µM and the TGI (SNB-19 CNS) was 4.56 µM. It also gave a TGI (HOP-62 NSCLC) of 5.42 µM, a GI50 (SK-MEL-2 melanoma) of 0.055 µM and a TGI (LOX IMVI melanoma) of 2.76 µM. The TGI (HCT-15 colon) was > 9.45 µM, the TGI (ACHN renal) was 7.38 µM and the TGI (786-0 renal) was 4.64 µM. The TGI (XF 498 CNS) was 0.64 µM, the TGI (RXF 393 renal) was 1.43 µM and the TGI (SK-OV-3 ovarian) was > 9.33 µM. The TGI (NCI-H522 lung) was 6.12 µM, the TGI (SF-295 CNS) was 7.19 µM and the TGI (CCRF-CEM leukemia) was > 7.21 µM. For the same compound, the TGI (MOLT-4 leukemia) was > 10 µM, the TGI (IGROV1 ovarian) was 4.62 µM and the TGI (RXF-631 renal) was 7.85 µM. For the same compound, the TGI (COLO 205 colon) was > 6.77 µM.
